Data: PubChem BioAssay (NCI)
Where “and” joins values, the source holds several entries; their conditions need not be identical. Identical values can stand only once.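 Test compounds were applied to cells in 96-well plates for 48 hours at 5 doses. The concentration for 50% growth inhibition is given as GI50. At the TGI there is no net growth.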

Key:
Assay in all cases: DTP human tumour cell line panel, 48 h
NCI-H23 lung = system: NCI-H23 lung
HL-60(TB) leukemia = system: HL-60(TB) leukemia
OVCAR-3 ovarian = system: OVCAR-3 ovarian
SK-MEL-2 melanoma = system: SK-MEL-2 melanoma
M14 melanoma = system: M14 melanoma
K-562 leukemia = system: K-562 leukemia
KM12 colon = system: KM12 colon
NCI-H460 lung = system: NCI-H460 lung
OVCAR-4 ovarian = system: OVCAR-4 ovarian
NCI-H522 lung = system: NCI-H522 lung

| SMILES | GI50 (NCI-H23 lung) [µM] | TGI (NCI-H23 lung) [µM] | GI50 (HL-60(TB) leukemia) [µM] | TGI (HL-60(TB) leukemia) [µM] | GI50 (OVCAR-3 ovarian) [µM] | TGI (OVCAR-3 ovarian) [µM] | GI50 (SK-MEL-2 melanoma) [µM] | TGI (SK-MEL-2 melanoma) [µM] | GI50 (M14 melanoma) [µM] | TGI (M14 melanoma) [µM] | GI50 (K-562 leukemia) [µM] | TGI (K-562 leukemia) [µM] | GI50 (KM12 colon) [µM] | TGI (KM12 colon) [µM] | GI50 (NCI-H460 lung) [µM] | TGI (NCI-H460 lung) [µM] | GI50 (OVCAR-4 ovarian) [µM] | TGI (OVCAR-4 ovarian) [µM] | GI50 (NCI-H522 lung) [µM] | TGI (NCI-H522 lung) |
| --- | --- | --- | --- | --- | --- | --- | --- | --- | --- | --- | --- | --- | --- | --- | --- | --- | --- | --- | --- | --- |
| C#Cc1cccc(NC(=O)c2ccc(NC(=O)CCl)cc2)c1 | 14.9 | 38.4 | 15.7 | 45 | 12.7 | 25.7 | 69.8 | > 82.5 | 22.2 | > 82.5 | 17.4 | > 82.5 | 47 | > 82.5 | 29.2 | > 82.5 | 16.7 | 72 | 13.5 | 35 µM |
| FC(F)(F)c1cc(Nc2ccc3cc(OCCCN4CCOCC4)ccc3n2)ccc1Cl | 1.94 | 4.8 | 2.24 | 6.49 | 1.93 | 4.47 | 1.99 | 3.88 | 1.71 | 3.66 | 1.04 | 3.83 | 1.92 | 4.37 | 1.72 | 3.42 | 2.54 | 12.8 | 2.04 | 3.82 µM |
| CCN(Cc1ccc(F)cc1)c1ccc(CO)c(OC)c1 | 23.3 | > 100 | 16 | 46.4 | 13.1 | 27.5 | 11.9 | 27.7 | 31.1 | > 100 | 20 | > 92 | 36.5 | > 100 | 23.2 | > 100 | 7.02 | 20.6 | 6.61 | 20 µM |
| CCOCc1cc(=O)c2c(OC)cc3c(c2o1)CCC(C)(C)O3 | – | > 100 | – | > 100 | – | > 100 | – | > 100 | – | > 100 | – | > 100 | – | > 100 | – | > 100 | – | > 100 | – | > 100 µM |
| COCc1c(-c2ccc(NC(=O)Nc3cc(C(F)(F)F)ccc3F)c(F)c2)c2c(N)ncnn2c1CN1CCOCC1 | 1.61 | 5.18 | 3.46 | > 10 | 3.37 | > 10 | 1.07 | 2.58 | 1.5 | > 10 | 1.18 | > 10 | 0.041 | 5.43 | 2.24 | 9.74 | 1.97 | > 10 | 1.76 | 4.05 µM |
| COc1ccc(N(C)c2nc(Cl)nc3cnn(C)c23)cc1 | < 0.0251 | > 100 | < 0.01 | < 0.0222 | < 0.01 | > 100 | < 0.01 | > 100 | < 0.01 | > 100 | < 0.01 | > 100 | < 0.01 | > 100 | < 0.01 | > 100 | 0.0795 | > 100 | < 0.01 | – |
| Cc1ccc(S(=O)(=O)Nc2ccc(-c3cc(-c4cccc(F)c4)c(C#N)c(N)n3)cc2)cc1 | 2.48 | 7.96 | 1.87 | 6.07 | 1.63 | 3.12 | 1.96 | 4.22 | 2.01 | 4.38 | 2.63 | > 100 | 3.1 | 10.2 | 3.53 | 12.6 | 1.77 | 3.67 | 1.69 | 4.91 µM |
| N#CC1C(=O)NC(c2ccccc2[N+](=O)[O-])c2sc3c(F)cccc3c21 (stereo not drawn) | 8.78 | 45 | 14.2 | 54.3 | 0.318 | 12.7 | 9.03 | 49.8 | 16.3 | 47.5 | 2.39 | 58.8 | 20 | 51.4 | 0.28 | 4.58 | 1.5 | 44.7 | 14.1 | 48 µM |
| Nc1ncnc2c1ccn2[C@@H]1O[C@H]([C@H](O)c2ccc(Cl)c(F)c2)[C@@H](O)[C@H]1O | > 100 | > 100 | > 100 | > 100 | > 100 | > 100 | > 100 | > 100 | > 100 | > 100 | > 100 | > 100 | > 100 | > 100 | > 100 | > 100 | > 100 | > 100 | > 100 | > 100 µM |
| C/C(=N/N=C(N)N)c1ccc(NC(=O)Nc2ccc(/C(C)=N/N=C(N)N)cc2)cc1 | 13.9 | 48 | 7.89 | > 28.4 | 18.6 | > 61.6 | 18.4 | 60.6 | 35.7 | > 75.1 | 5.84 | > 59.9 | 9.78 | > 77.7 | 13.5 | 48.8 | 17.1 | 61.1 | 7.14 | 28.8 µM |
| O=C1NC(c2cccc(OCc3ccccc3)c2)Nc2ccccc21 (stereo not drawn) | – | > 100 | – | < 0.0428 | – | 0.558 | – | 30 | – | 38.8 | – | 35.6 | – | 73.9 | – | 22.9 | – | > 100 | – | 0.636 µM |
| Cc1nccc2c3ccc(OCc4cn(-c5ccc(Cl)cc5)nn4)cc3n(CC(C)C)c12 | 1.88 | 17.2 | 0.886 | 2.07 | 5.15 | > 33.3 | 5.59 | 22.5 | 1.61 | 13.9 | 0.992 | > 33.3 | 2.69 | 16.8 | 2.33 | 12.9 | 2.24 | 15.1 | 4.17 | 15.5 µM |
| CCOP1(=O)C=C(C)C(=C(Cl)Cl)C(C)=C1 (stereo not drawn) | – | 38 | – | 10.9 | – | 64.2 | – | 56.2 | 10.7 | 24.6 | – | 16.3 | – | 5.11 | – | > 100 | – | 29.1 | 5.57 | 7.79 µM and 18.9 µM |
| CCN(CC)CCn1c2ccccc2c(=O)c2c(OC)ccc(OC)c21 | – | > 100 | – | > 100 | – | > 100 | – | > 100 | – | > 100 | – | > 100 | – | > 100 | – | > 100 | – | > 100 | – | > 100 µM |
| O=c1c(Cl)cc2nc3ccccc3sc-2c1Cl | – | 28 | – | 38.4 | – | 5.93 | – | 27.1 | – | 37.2 | – | > 100 | – | 38.4 | – | 35.1 | – | 27.4 | – | 25.9 µM |
| O=C1C=CC2(C=C1)C[C@H](NC(=O)OCc1ccccc1)C(=O)O2 | – | 32.5 | – | 7.58 | – | 30.4 | – | 40 | – | 32.6 | – | > 32.5 | – | 35.7 | – | 59.9 | – | 39.6 | – | 8.53 µM |
| COC(=O)[C@]12CC[C@@H](C)[C@H](C)[C@@H]1C1=CC[C@@H]3[C@@]4(C)C(C=O)=C[C@@](C)(COC(=O)/C=C/c5ccccc5)[C@@H]4[C@H](O)C[C@@]3(C)[C@]1(C)CC2 | 2.99 | 15.1 | 2.48 | 5.97 | 2.35 | 5.53 | 3.21 | 12.8 | 3.33 | 17.3 | 3.53 | > 100 | 3.58 | 19.4 | 2.96 | 10.2 | 3.16 | > 100 | 4.47 | 17.4 µM |
| O=[N+]([O-])c1ccc(Sc2ccncn2)c([N+](=O)[O-])c1 | 2.93 | 9.73 | 0.174 | 0.677 | 1.46 | 2.82 | 2.96 | 8.96 | 1.64 | 3.3 | 0.277 | 1.95 | 2.75 | 9 | 3.18 | 10.8 | 2.78 | 11.3 | 0.291 | 0.987 µM |
| O=C1C2C3C=CC(C2C(=O)N1CN1CCSCC1)C1C2C(=O)N(CN4CCSCC4)C(=O)C2C31 (stereo not drawn) | – | > 100 | – | 73 | – | > 100 | – | > 100 | – | > 100 | – | > 100 | – | > 100 | 40 | > 57.3 | – | > 100 | 82.3 | > 100 µM |
| CSc1ccc(C(=O)/C=C/c2ccccc2Cl)cc1 | 15.4 | 32.5 | 19.5 | 90.3 | 8.98 | 21.9 | 16.2 | 37.7 | 16.6 | 36.1 | 18.8 | 58.3 | 16.6 | 42 | 25.2 | 70 | 25.7 | 66 | 10.9 | 33.1 µM |
| c1ccc2c(NCCCCCCNc3cccc4ccccc34)cccc2c1 | – | > 100 | – | > 100 | – | > 100 | – | > 100 | – | > 100 | – | > 100 | – | > 100 | – | > 100 | – | > 100 | – | > 100 µM |
| CN1CCN(Cc2ccc(NC(=O)c3cncc(C#Cc4cnc(N)c5cnccc45)c3)cc2C(F)(F)F)CC1 | 0.189 | 3.81 | 0.0926 | 0.585 | 0.337 | 8.43 | 0.108 | 0.283 | 0.0727 | 0.281 | 0.005 | 0.732 | 0.0169 | 5.53 | 0.218 | 3.31 | 0.129 | 7.52 | 0.226 | 9.45 µM |
| COc1cc(/C=C/C(=O)c2c(C)nc3ccccc3c2C)ccc1OCCCN1CCN(C(=O)c2ccco2)CC1 | 6.39 | 24.7 | 2.72 | 5.63 | 9.46 | 21.3 | 16.1 | 37.7 | 11.6 | 23.8 | 2.57 | 10.6 | 11.4 | 24.3 | 8.91 | 21.7 | 8.85 | > 100 | 5.06 | 23.9 µM |
| CCCN1CCC(c2ccc(Nc3nc(Nc4cc(F)ccc4C(N)=O)c4cc[nH]c4n3)c(OC)c2)CC1 | 2.22 | 6.5 | 0.0565 | 5.81 | 3.66 | 7.25 | 1.86 | 5.78 | 1.58 | 5.48 | 0.681 | 2.8 | 2.88 | 6.12 | 0.147 | 1.43 | 4.1 | 13.1 | 3.42 | 6.69 µM |
| CCn1ccc(NS(=O)(=O)c2ccc(N)cc2)nc1=O | > 100 | > 100 | > 100 | > 100 | > 100 | > 100 | > 100 | > 100 | > 100 | > 100 | > 100 | > 100 | > 100 | > 100 | > 100 | > 100 | > 100 | > 100 | > 100 | > 100 µM |
| CCOC1CC2OC(=O)C1C=C2C(=O)OC (stereo not drawn) | – | 44.2 | – | 46.8 | – | 75.1 | – | 65.7 | – | 38.6 | – | 83.3 | – | > 100 | – | > 100 | – | 57.4 | – | 28.1 µM |
| CCOC(=O)C(C(O)c1ccc([N+](=O)[O-])cc1)P(=O)(OCC)OCC (stereo not drawn) | – | > 100 | – | 64 | – | > 100 | – | > 100 | – | > 100 | – | > 100 | – | > 100 | – | > 100 | – | > 100 | – | > 100 µM |
| Cc1cc(Cl)cc(Cc2cc(Cl)cc(C)c2O)c1O | 1.9 | 8.09 | 2.94 | 8.09 | 2.35 | 7.83 | 2.6 | 5.73 | 2.98 | 11.3 | 3.08 | 12.1 | 2.85 | 10.2 | 3.14 | 10.5 | 3.29 | 50.6 | 1.76 | 6.65 µM |
| COc1c2c(cc3c1C(=O)Cc1ccc4c(c1CN(C)CC3)OCO4)OCO2 | – | > 100 | – | > 100 | – | > 100 | – | > 100 | – | > 100 | – | > 100 | – | > 100 | – | > 100 | – | > 100 | – | > 100 µM |
